Kd data for 1 substance are collected here from patent US7982038B2 (priority 2003, dated 2011).

The target of this test is α7 nAChR subtype (Rattus norvegicus, UniProt Q05941). The test is classed as binding. The settings on record: read-out: KD (saturation curve, one site model).
Chain of α7 nAChR subtype (Q05941 23-502 limits assumed): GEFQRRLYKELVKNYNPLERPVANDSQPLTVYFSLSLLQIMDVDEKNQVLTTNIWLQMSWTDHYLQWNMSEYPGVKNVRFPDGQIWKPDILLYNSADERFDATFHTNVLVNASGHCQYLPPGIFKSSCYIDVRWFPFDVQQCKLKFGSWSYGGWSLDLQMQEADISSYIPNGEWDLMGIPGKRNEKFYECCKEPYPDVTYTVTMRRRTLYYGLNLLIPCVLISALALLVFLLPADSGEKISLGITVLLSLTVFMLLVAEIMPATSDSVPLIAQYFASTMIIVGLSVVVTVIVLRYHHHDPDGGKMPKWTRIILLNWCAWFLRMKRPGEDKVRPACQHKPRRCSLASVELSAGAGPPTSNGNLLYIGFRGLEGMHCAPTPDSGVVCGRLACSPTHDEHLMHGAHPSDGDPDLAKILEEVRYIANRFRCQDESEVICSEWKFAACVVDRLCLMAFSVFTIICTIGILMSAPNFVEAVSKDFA

Regarding [^125I]-α-Bungarotoxin [^125I-α-BTX], the Kd stood at 1.67 nM.
